{"source": "patent US20230031406A1", "about": "“COMPOUNDS AND COMPOSITIONS FOR TREATING CONDITIONS ASSOCIATED WITH NLRP ACTIVITY” (Novartis AG, priority 2018, published 2023)", "data": [{"system": "PMA-differentiated THP-1 cells", "experiment": "IL-1β production in PMA-differentiated THP-1 cells stimulated with gramicidin (hTHP-1 assay containing 2% fetal bovine serum; Procedures 1 and 2)", "type": "cell-based, human", "settings": "Homo sapiens, THP-1, Table B3; hTHP-1 assay, 2% fetal bovine serum; class symbols; read-out: IC50", "in_short": "(§1)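 Secreted IL-1β, read by HTRF, after gramicidin challenge (5 μM, 2 h) of THP-1 cells differentiated with PMA (20 ng/ml, 16-18 h) and plated at 50,000 cells/well in 2% FBS medium. Compounds, 0.0017-100 μM final with 0.37% DMSO, were added 1 h before stimulation.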", "units": {"IC50": "nM"}, "values": [{"smiles": "CC(C)n1nc(S(N)(=O)=NC(=O)Nc2c3c(nc4c2CC[C@H]4C)CCC3)cc1CO", "note": "(stereo partly drawn) [Example 596, 5-(Hydroxymethyl)-1-isopropyl-N-(((R)-3-methyl-1,2,3,5,6,7-hexahydrodicyclopenta[b,e]pyridin-8-yl)carbamoyl)-1H-pyrazole-3-sulfonimidamide]", "IC50": "1000 to 5000"}, {"smiles": "CCn1cc(F)c(S(N)(=O)=NC(=O)Nc2c(C)c(C(F)(F)F)nc3c2CCC3)n1", "note": "(centres unmarked) [Example 597, 1-Ethyl-4-fluoro-N′-((3-methyl-2-(trifluoromethyl)-6,7-dihydro-5H-cyclopenta[b]pyridin-4-yl)calbamoyl)-1H-pyrazole-3-sulfonimidamide]", "IC50": "40 to 200"}, {"smiles": "CC1(C)CCc2c1nc1c(c2NC(=O)N=S(N)(=O)c2sc(C(C)(O)CO)nc2CO)CCC1", "note": "(centres unmarked) [Example 598, 2-(1,2-Dihydroxypropan-2-yl)-N′-((3,3-dimethyl-1,2,3,5,6,7-hexahydrodicyclopenta[b,e]pyridin-8-yl)carbamoyl)-4-(hydroxymethyl)thiazole-5-sulfonimidamide]", "IC50": "200 to 1000"}, {"smiles": "CC1(C)CCc2c1nc1c(c2NC(=O)N=S(N)(=O)c2sc([C@@](C)(O)CO)nc2CO)CCC1", "note": "(stereo partly drawn) [Example 599, 2-((S)-1,2-dihydroxypropan-2-yl)-N′-((3,3-dimethyl-1,2,3,5,6,7-hexahydrodicyclopenta[b,e]pyridin-8-yl)carbamoyl)-4-(hydroxymethyl)thiazole-5-sulfonimidamide]", "IC50": "1000 to 5000"}, {"smiles": "CC1(C)CCc2c1nc1c(c2NC(=O)N=S(N)(=O)c2sc([C@](C)(O)CO)nc2CO)CCC1", "note": "(stereo partly drawn) [Example 600, 2-((R)-1,2-dihydroxypropan-2-yl)-N′-((3,3-dimethyl-1,2,3,5,6,7-hexahydrodicyclopenta[b,e]pyridin-8-yl)carbamoyl)-4-(hydroxymethyl)thiazole-5-sulfonimidamide]", "IC50": "200 to 1000"}, {"smiles": "Cc1c(C(F)(F)F)nc2c(c1NC(=O)N=S(N)(=O)c1cnn3c1OC[C@H](O)C3)CCC2", "note": "(stereo partly drawn) [Example 601, (6R)-6-hydroxy-N′-((3-methyl-2-(trifluoromethyl)-6,7-dihydro-5H-cyclopenta[b]pyridin-4-yl)carbamoyl)-6,7-dihydro-5H-pyrazolo[5,1-b][1,3]oxazine-3-sulfonimidamide]", "IC50": "5000 to 30000"}, {"smiles": "CCn1cc(F)c(S(N)(=O)=NC(=O)Nc2c3c(nc4c2CC[C@H]4C)CCC3)n1", "note": "(stereo partly drawn) [Example 602, 1-Ethyl-4-fuoro-N′-(((R)-3-methyl-1,2,3,5,6,7-hexahydrodicyclopenta[b,e]pyridin-8-yl)carbamoyl)-1H-pyrazole-3-sulfonimidamide]", "IC50": "8 to 40"}, {"smiles": "CC1(C)CCc2c1nc1c(c2NC(=O)N=S(N)(=O)c2cnn3c2OC[C@H](O)C3)CCC1", "note": "(stereo partly drawn) [Example 603, (6R)-N′-((3,3-dimethyl-1,2,3,5,6,7-hexahydrodicyclopenta[b,e]pyridin-8-yl)carbamoyl)-6-hydroxy-6,7-dihydro-5H-pyrazolo[5,1-b][1,3]oxazine-3-sulfonimidamide]", "IC50": "1000 to 5000"}, {"smiles": "CC1(C)CCc2c1nc1c(c2NC(=O)N=S(N)(=O)c2cnc(C(C)(CO)CO)s2)CCC1", "note": "(centres unmarked) [Example 604, 2-(1,3-Dihydroxy-2-methylpropan-2-yl)-N′-((3,3-dimethyl-1,2,3,5,6,7-hexahydrodicyclopenta[b,e]pyridin-8-yl)carbamoyl)thiazole-5-sulfonimidamide]", "IC50": "40 to 200"}, {"smiles": "CC(C)(CO)c1ncc(S(N)(=O)=NC(=O)Nc2c3c(nc4c2CCC4(C)C)CCC3)s1", "note": "(centres unmarked) [Example 605, N′-((3,3-dimethyl-1,2,3,5,6,7-hexahydrodicyclopenta[b,e]pyridin-8-yl)carbamoyl)-2-(1-hydroxy-2-methylpropan-2-yl)thiazole-5-sulfonimidamide]", "IC50": "200 to 1000"}]}, {"system": "PMA-differentiated THP-1 cells", "experiment": "IL-1β production in PMA-differentiated THP-1 cells stimulated with gramicidin (hTHP-1 assay containing 2% fetal bovine serum; Procedures 1 and 2)", "type": "cell-based, human", "settings": "Homo sapiens, THP-1, Table B3; hTHP-1 assay, 2% fetal bovine serum; numeric values; read-out: IC50", "in_short": "as §1", "units": {"IC50": "nM"}, "values": [{"smiles": "Cc1c(C2(C)CC2)nc2c(c1NC(=O)N=S(N)(=O)c1cnc(C(C)(O)CO)s1)CCC2", "note": "(centres unmarked) [Example 606, 2-(1,2-Dihydroxypropan-2-yl)-N′-((3-methyl-2-(1-methylcyclopropyl)-6,7-dihydro-5H-cyclopenta[b]pyridin-4-yl)carbamoyl)thiazole-5-sulfonimidamide]", "IC50": "> 30000"}]}]}
